Assay results taken from PMC5620575 (Pharmaceutics, 2017).
≈ marks a conversion by molar mass, not a printed value.

Legend:
[1] = pharmacokinetics after single oral administration as suspension; format: in vivo; conditions: New Zealand White, plasma, rabbit, 20 mg/kg, n = 4
Experimental: The pediatric feeding tube was pushed until it reached the stomach.
Three groups of rabbits (n = 4, each) received 20 mg/kg oral dose of each compound. […] Accurately weighted amounts of each compound were dissolved/suspended in 20 mL of warm normal saline using an ultrasound water bath. […] The solutions/suspensions of the three compounds were administered orally to the rabbits using a pediatric feeding tubes. After oral administration of each compound, serial blood samples were obtained through the IV catheter, over a period of 10 h after administration. Plasma was obtained from blood by centrifugation, and samples were kept at −80 °C until analysis.
(§1) The pharmacokinetic parameters for each of the three compounds including half-life (t1/2), volume of distribution (Vd), elimination rate constant (k), area under the plasma concentration-time curve (AUC), total body clearance (CLT), renal clearance (CLR), and oral bioavailability (F) were determined using the general pharmacokinetic parameter calculation procedures using PKPD tools for Microsoft Excel. The obtained pharmacokinetic parameters for each compound were compared using Statistical Package of Social Sciences (SPSS) to determine the difference in the pharmacokinetic behavior for the three compounds.

[2] = test system: S. aureus Giorgio; parameters: method as in ref unpublished data from Jin-Hwan Kwak at Handong Global University; conditions: oral suspension 1 and 4 h after infection, survival recorded for 72 h; ref unpublished data from Jin-Hwan Kwak at Handong Global University; cited from earlier work
[3] = pharmacokinetics after single oral administration as microemulsion; format: in vivo; conditions: New Zealand White, plasma, rabbit, 20 mg/kg, n = 3
Experimental: Three groups of rabbits (n = 3, each) received 20 mg/kg oral dose of each compound in the form of microemulsion through a pediatric feeding tube. After administration, serial blood samples were obtained through the IV catheter, over a period of 10 h. Plasma was obtained from blood by centrifugation, and samples were kept at −80 °C until analysis.
as §1

[4] = test system: Streptococcus pneumoniae; parameters: method as in PMID 12467705, PMID 15911326, PMID 17140706, PMID 19376613, PMID 23811087; conditions: cited from earlier work
[5] = test system: Staphylococcus aureus and Enterococci spp; parameters: method as in PMID 12467705, PMID 15911326, PMID 17140706, PMID 19376613, PMID 23811087; conditions: clinical isolates; cited from earlier work
[6] = parameters: method as in unpublished data from our laboratory; conditions: rabbit urine after IV administration; ref unpublished data from our laboratory; cited from earlier work
[7] = test system: Heamophilus influenzae; parameters: method as in PMID 12467705, PMID 15911326, PMID 17140706, PMID 19376613, PMID 23811087; conditions: unit printed only for the neighbouring MICs of the sentence; cited from earlier work
[8] = tissue to plasma distribution; format: in vivo; conditions: New Zealand White, rabbit, in vivo, 2 x 10 mg/kg IV, 2 h after second dose, n = 3, read-out: Tissue to Plasma Concentration Ratio, Kidney
Experimental: Three groups of White New Zealand rabbits (n = 3, each) weighing 3.0–3.5 kg were used. Each group received 10 mg/kg of one compounds administered intravenously over a period of 3–5 min, followed one hour later by a second IV dose of 10 mg/kg. Two h later, the rabbits were euthanized with an IV dose of pentobarbital. Plasma and tissue samples, including kidney, liver, lungs, spleen, heart, muscles, and vetrus fluid were collected immediately, and stored at −80 °C until analysis.
Plasma ultra-filtrate samples were analyzed using the same procedures for the plasma. Tissue homogenates were prepared by adding 1 gm of the tissues samples to 4 g of phosphate buffer, pH 7.4 (1:4, w/w), then homogenization using Tissue-Tearor, Bio-Spec Products Inc. (Bartlesville, OK, USA). Aliquots of 200 μL of tissue homogenate samples were analyzed using the procedures for the plasma and the concentrations were determined using plasma calibrators as described and validated previously for Lzd and PH027 [18].
The tissue to plasma concentration ratios for the three compounds were calculated from the ratio of the tissue homogenate concentrations corrected for the dilution during the homoginization process and the plasma concentrations. Generally, the three compounds have very good distribution to all tissues. The tissue to plasma distribution ratios for the novel compounds were more than one in kidney, lung, liver, heart, muscles and spleen, and the ratios were more than those for Lzd in all investigated tissues. Table 3, summerizes the tissue to plasma distribution ratios for the three compounds in different tissues.

[9] = weak base; reported, no reference given; cited from earlier work
[10] = parameters: method as in ref 25 = [25]; 25. ZYVOXAM ® Product Monograph Pfizer Canada Inc. Kirkland, QC, Canada 2015; conditions: humans; cited from earlier work
[11] = test system: Escherichia coli; parameters: method as in PMID 12467705, PMID 15911326, PMID 17140706, PMID 19376613, PMID 23811087; conditions: cited from earlier work
[12] = test system: Moraxella catarrhalis; parameters: method as in PMID 12467705, PMID 15911326, PMID 17140706, PMID 19376613, PMID 23811087; conditions: cited from earlier work
[13] = humans; cited from earlier work
[14] = pharmacokinetics after single IV administration; format: in vivo; conditions: rabbit, 5 mg/kg
Text: IV administration of the compounds under investigation, and collection of blood samples were through a catheter inserted in the marginal ear vein of the rabbit (I-Cath, CharterMed Inc., Winston-Salem, NC, USA). After IV drug administration, blood was withdrawn to fill the cannula and then reinjected three times before obtaining any blood samples to prevent contamination. Furthermore, the cannula was flushed with heparinized saline to prevent blockage of the cannula and prevent sample to sample contamination.
Urine samples were collected utilizing Foly Catheter (size French 8). The catheter was inserted into the rabbit bladder using a lubricant. When urine is collected over a specific time interval, the bladder was irrigated with 3 × 15 mL normal saline at 3 min, 6 min, and 10 min before the end of the urine collection interval [15, 16]. Irrigation of the bladder is necessary to obtain the majority of the drug eliminated in urine during the collection interval.
Three groups of rabbits (n = 4, each) received 5 mg/kg dose of each compound via the IV catheter. This dose was selected based on the results of a preliminary experiment to achieve measurable plasma concentrations for 8 h using our analytical methods, to ensure good characterization of the plasma concentration-time profile. Accurately weighed Lzd and PH027 powder were dissolved first in 600 μL of ethanol using an ultrasound water bath. The resulting solution was then diluted with normal saline to produce the solutions used for IV administration, which consist of the dose of the compound dissolved in 3 mL of 20% ethanol in normal saline. PH051 required the use of slightly larger volume of ethanol to achieve complete dissolution. So, 900 μL of ethanol were used, and the resulting solution used for IV administration consisted of PH051 dose dissolved in 3 mL of 30% ethanol in normal saline. The difference in the volume of ethanol administered, 300 μL, which was necessary to ensure complete dissolution of PH051, should not have a significant effect on the pharmacokinetic behavior of PH051. The solutions were administered slowly over a period of […] administration, serial blood and urine samples were obtained over a period of 8 h. Plasma was obtained from blood by centrifugation, and samples were kept at −80 °C until analysis. The volumes of urine samples were determined and recorded, and aliquots were kept at −80 °C until analysis.
as §1

[15] = White New Zealand, plasma, n = 4

Q: What does the source list for `CC(=O)NC[C@H]1CN(c2ccc(N3CCOCC3)c(F)c2)C(=O)O1` [Linezolid, reference compound]?
A: AUC [1]: 6250 ± 3620 ng·h/mL; Cmax [1]: 3910 ± 1010 ng/mL; Tmax [1]: 60 min; in vivo activity against systemic mice infection [2]: better than the in vivo activity of the novel triazolyl-oxazolidinone derivatives; AUC [3]: 8350 ± 3340 ng·h/mL; Cmax [3]: 3410 ± 1800 ng/mL; Tmax [3]: 45 min; MIC [4]: 0.5 µg/mL (≈ 1.48 µM); MIC [5]: 0.5 to 1.0 µg/mL; main metabolic route [6]: metabolized mainly through oxidation; MIC [7]: 8 µg/mL (≈ 23.7 µM); Kp at 2 h [8]: 2.05 ± 0.067; pKa [9]: 1.4; dose excretion in urine [10]: 30%; MIC [11]: > 64 µg/mL; MIC [12]: 8.0 µg/mL (≈ 23.7 µM); plasma protein binding [13]: 30%; AUC [14, 15]: 4040 ± 1280 ng·h/mL; half-life [14, 15]: 52.4 ± 6.3 min; k el ([14]; White New Zealand, plasma, n = 4, read-out: Elimination rate constant (converted)): 0.00022 s⁻¹; CL renal ([14]; White New Zealand, urine and plasma, from renal excretion rate and plasma drug concentration, read-out: Renal clearance (converted)): 1.38 mL/min/kg; CLT ([14]; n = 4): 20.7 ± 7.17 mL/min/kg; Fraction excreted unchanged in urine ([14]; ratio of renal clearance to total body clearance): 5.70%
